For the assay, the system named is KRAS-mutant PDC complex spheroid viability. Nature of the assay: Anticancer human tumor 186277-243-T-J2-PDC patient-derived colon adenocarcinoma cell line growth inhibition [KRAS2]. As to conditions: for viability, T/C: stronger effect = lower value. From the text:
Multicellular complex tumor spheroid response to RAS pathway inhibitors in combination with a targeted agents in patient-derived cell lines with oncogenic KRAS variants from multiple cancer types
A high-throughput screen of multi-cell type tumor spheroids was designed to identify active combinations of targeted small molecules and KRAS pathway inhibitors. Complex spheroids include a stromal component modeled by human endothelial cells (HUVEC) and fibroblasts modeled by human mesenchymal stem cells (MSCs). The concentration ranges selected for each drug and investigational agent were based upon clinically achievable concentrations if the clinical Cmax of the agent was known.
Compounds. The drugs and investigational agents: BI-3406 (NSC825286), BAY-293 (NSC824723), batoprotafib (TNO155; NSC825523), sotorasib (AMG 510; NSC818433), MRTX1257 (NSC819558), elimusertib (BAY 1895344; NSC800525), molibresib (GSK525762; NSC774829), temuterkib (LY3214996; NSC803410), venetoclax (NSC766270), alisertib (NSC759677), olaparib (NSC753686), talazoparib (NSC767125), erdafitinib (NSC781556), ipatasertib (NSC767898), cabozantinib (NSC761068), nintedanib (NSC756659), abemaciclib (NSC768073), docetaxel (NSC628503), trametinib (NSC758246), and sapanisertib (NSC764658) were obtained from the National Cancer Institute (NCI) Developmental Therapeutics Program Chemical Repository. The FDA-approved anticancer drug set is available from the Developmental Therapeutics Program. […] The stock solutions were prepared in dimethyl sulfoxide (DMSO, Sigma-Aldrich, St. Louis, MO, cat. D2650) at 800-fold the tested concentration and stored at -70 degrees C prior to their use. All drugs and investigational agents were tested over a range starting from a high concentration at or near the clinical Cmax and decreasing in half-log increments. If the clinical Cmax for an agent had not been determined, the highest concentration tested was 10 microM.
Cell Culture. All cells were maintained in an incubator at 37 degrees C and 5% CO2 with 95% humidity. The PDC lines were cultured according to standard operating procedures established by the NCI PDMR (https://pdmr.cancer.gov/sops/default.htm). Briefly, all PDCs were thawed and cultured in Matrigel-coated flasks prepared with a working solution of 1X Ham's F-12 nutrient mix, without supplementation (Invitrogen, Waltham, MA, cat. 11765054), 100 U/mL penicillin-streptomycin (Invitrogen, cat. 15140122), and 2.5% Matrigel (Corning Inc., Corning, NY, cat. 354248) for the first three passages. All PDCs were cultured in complete DMEM/F-12 media containing advanced DMEM/F-12 (Invitrogen, cat. 12634028), 4.9% defined fetal bovine serum, heat inactivated (HyClone Laboratories Inc., Logan, UT, cat. SH30070.03HI), 389 ng/mL hydrocortisone (Sigma-Aldrich, cat. H4001), 9.7 ng/mL human EGF recombinant protein (Invitrogen, cat. PHG0313), 23.4 microg/mL adenine (Sigma-Aldrich, cat. A2786), 97.3 U/mL penicillin-streptomycin (Invitrogen, cat. 15140122), 1.9 mM L-glutamine (Invitrogen, cat. 25030081), and 9.7 microM Y-27632 dihydrochloride (Tocris Bioscience, Bristol, United Kingdom, cat. 1254). The PDCs were cultured in complete DMEM/F12 media without 9.7 microM Y-27632 dihydrochloride for at least two passages prior to the screen. The established cell line HOP-62 was cultured in RPMI 1640 medium, HEPES (Invitrogen, cat. 22400105) with 10% defined fetal bovine serum (HyClone Laboratories Inc., cat. SH30070.03) and 2 mM L-glutamine (Invitrogen, cat. 25030081). The pooled donor HUVEC were cultured in endothelial cell growth medium 2 (PromoCell, Heidelberg, Germany, cat. C-22011) and the hMSC were cultured in mesenchymal stem cell growth medium 2 (PromoCell, cat. C-28009). For all experiments, HUVEC and hMSC were used at passages </=5, while the malignant cell lines were used at passages </=15. […]

Where [1] appears, read: compound alone, run of 07/19/2021.
The mark [2] stands for this setting: compound alone, run of 07/26/2021.

Values joined by “and” are separate entries in the source; they are usually repeats but may differ in a detail not shown here. Equal values may be shown once.

By viability, T/C is commonly meant the result in the treated group divided by that in the control group, in per cent. In general, IC50 refers to the concentration that gives 50% inhibition.
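For viability, T/C in this document: viability read after seven days of compound exposure; 100% = DMSO vehicle-treated spheroids so lower means less viable.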

As for `C=CC(=O)N1CCN(c2nc(OCC3CCCN3C)nc3c2CCN(c2cccc4cccc(C)c24)C3)CC1CC#N` (stereo not drawn), where the note is “compound 0.0316 µM”, the viability, T/C is 98.9% [middle of 16 runs]. The half-inhibitory concentration (IC50) under setting [1] was 1.82 µM [middle of 4 runs] and the IC50 under setting [2] was 1.75 µM [middle of 5 runs].

For `CC(=O)Nc1cccc(-n2c(=O)n(C3CC3)c(=O)c3c(Nc4ccc(I)cc4F)n(C)c(=O)c(C)c32)c1`, the viability, T/C is 102% [middle of 5 runs] (compound 0.0001 µM); 21.2% [middle of 5 runs] (compound 0.001 µM); 9.7% [middle of 5 runs] (compound 0.00316 µM); 4.01% [middle of 5 runs] (compound 0.01 µM); 1.43% [middle of 5 runs] (compound 0.0316 µM). Moreover, under “curve of compound”, the IC50 is 0.622 nM [middle of 5 runs].

For `CC(=O)OC12COC1CC(O)C1(C)C(=O)C(O)C3=C(C)C(OC(=O)C(O)C(NC(=O)OC(C)(C)C)c4ccccc4)CC(O)(C(OC(=O)c4ccccc4)C21)C3(C)C` (stereo not drawn), the viability, T/C by setting is: (compound 0.01 µM) 5.72% [middle of 5 runs]; (compound 0.0316 µM) 3.66% [middle of 5 runs]; (compound 0.1 µM) 3.28% [middle of 5 runs]; (compound 0.316 µM) 3.46% [middle of 4 runs]; (compound 1 µM) 3.38% [middle of 5 runs]; (compound 3.16 µM) 3.74% [middle of 5 runs]. The half-maximal inhibitory concentration (IC50) (curve of compound) was less than 0.01 µM.

In the case of `CC(C)NCC(C(=O)N1CCN(c2ncnc3c2C(C)CC3O)CC1)c1ccc(Cl)cc1` (stereo not drawn), the viability, T/C is 89.6% [middle of 5 runs] (compound 0.0316 µM); 89.8% [middle of 5 runs] (compound 0.1 µM); 73% [middle of 5 runs] (compound 0.316 µM); 39.9% and 40.4% (2×) and 33.2% (compound 1 µM); 12.9% [middle of 5 runs] (compound 10 µM). Besides, the half-inhibitory concentration (IC50) (curve of compound) is 746 nM [middle of 5 runs].

Turning to `CC(C)n1nc(-c2ccc3oc(N)nc3c2)c2c(N)ncnc21`, the viability, T/C runs as follows: (compound 0.000316 µM) 95.7% [middle of 5 runs]; (compound 0.001 µM) 98.8% [middle of 5 runs]; (compound 0.00316 µM) 77.8% [middle of 5 runs]; (compound 0.01 µM) 56.7% [middle of 5 runs]; (compound 0.0316 µM) 32.1% [middle of 5 runs]; (compound 0.1 µM) 19.2% [middle of 5 runs]. Moreover, where the note is “curve of compound”, the concentration for half-maximal inhibition (IC50) was 14.1 nM [middle of 5 runs].

As for `CC1(C)CCC(CN2CCN(c3ccc(C(=O)NS(=O)(=O)c4ccc(NCC5CCOCC5)c([N+](=O)[O-])c4)c(Oc4cnc5[nH]ccc5c4)c3)CC2)=C(c2ccc(Cl)cc2)C1`, the viability, T/C is 97.6% [middle of 5 runs] (compound 0.0316 µM); 93.7% [middle of 5 runs] (compound 0.1 µM); 104% [middle of 5 runs] (compound 0.316 µM); 98.1% [middle of 5 runs] (compound 1 µM); 22.7% [middle of 5 runs] (compound 3.16 µM); 4.85% [middle of 5 runs] (compound 10 µM). Also, the concentration for half-maximal inhibition (IC50) (curve of compound) was 2.07 µM [middle of 5 runs].

On to `CC1COCCN1c1cc(-c2ccnn2C)c2ccnc(-c3ccn[nH]3)c2n1` (stereo not drawn), for which the viability, T/C (compound 0.0316 µM) is 29.2% [middle of 5 runs]; the viability, T/C (compound 0.1 µM) is 7.22% [middle of 5 runs]; the viability, T/C (compound 0.316 µM) was 4.63% [middle of 5 runs]; the viability, T/C (compound 1 µM) was 3.65% [middle of 5 runs]; the viability, T/C (compound 3.16 µM) is 4.09% [middle of 5 runs].

For the compound `CC1OCC2(CCN(c3cnc(Sc4ccnc(N)c4Cl)c(N)n3)CC2)C1N` (stereo not drawn), the viability, T/C by setting is: (compound 0.0316 µM) 107% and 92.4% and 90.5%; (compound 0.1 µM) 102% [middle of 19 runs]. Further, the half-maximal inhibitory concentration (IC50) by setting is: (compound alone, run of 07/12/2021) more than 10 µM; under setting [1], 7.4 µM and > 10 µM; under setting [2], more than 10 µM; (curve of compound) more than 10 µM.

With `CCN1CCN(Cc2ccc(Nc3ncc(F)c(-c4cc(F)c5nc(C)n(C(C)C)c5c4)n3)nc2)CC1`, the viability, T/C is, setting by setting: (compound 0.00316 µM) 98.8% [middle of 4 runs]; (compound 0.01 µM) 98.5% [middle of 4 runs]; (compound 0.0316 µM) 107% [middle of 4 runs]; (compound 0.1 µM) 112% (2×) and 136% and 113%; (compound 1 µM) 101% [middle of 4 runs]. In addition, the IC50 (curve of compound) was more than 1 µM.

Regarding `CCNC(=O)CC1N=C(c2ccc(Cl)cc2)c2cc(OC)ccc2-n2c(C)nnc21` (stereo not drawn), the viability, T/C reads like this: (compound 0.0316 µM) 96.3% [middle of 5 runs]; (compound 0.1 µM) 101% (4×) and 92.8%. In addition, the IC50 (curve of compound) is > 10 µM and 5.78 µM.

Consider `CN(C)C/C=C/C(=O)Nc1cc2c(Nc3ccc(F)c(Cl)c3)ncnc2cc1O[C@H]1CCOC1`, for which the viability, T/C is, setting by setting: (compound 0.000316 µM) 101% [middle of 5 runs]; (compound 0.00316 µM) 101% [middle of 5 runs]; (compound 0.01 µM) 108% [middle of 5 runs]; (compound 0.0316 µM) 120% (3×) and 114% and 105%; (compound 0.1 µM) 111% [middle of 5 runs]. For the same compound, the IC50 (curve of compound) was more than 0.1 µM.

Turning to `COc1cc(Nc2ncc3c(n2)-c2ccc(Cl)cc2C(c2c(F)cccc2OC)=NC3)ccc1C(=O)O`, the viability, T/C reads like this: (compound 0.0316 µM) 37.6% [middle of 5 runs]; (compound 0.1 µM) 34.1% [middle of 5 runs]; (compound 0.316 µM) 33.4% [middle of 5 runs]; (compound 1 µM) 37% [middle of 5 runs]; (compound 3.16 µM) 46.8% [middle of 5 runs]; (compound 10 µM) 50.4% [middle of 5 runs]. For the same compound, the concentration for half-maximal inhibition (IC50) (curve of compound) was less than 0.0316 µM.

As for `COc1cc(OC)cc(N(CCNC(C)C)c2ccc3ncc(-c4cnn(C)c4)nc3c2)c1`, the viability, T/C runs as follows: (compound 0.0316 µM) 109% [middle of 5 runs]; (compound 0.1 µM) 106% [middle of 5 runs].

Consider `COc1cc2nccc(Oc3ccc(NC(=O)C4(C(=O)Nc5ccc(F)cc5)CC4)cc3)c2cc1OC`, for which the viability, T/C was 92.6% [middle of 5 runs] (compound 0.0316 µM), 99.7% [middle of 5 runs] (compound 0.1 µM), 104% [middle of 5 runs] (compound 0.316 µM) and 13.8% [middle of 5 runs] (compound 3.16 µM). Further, under “curve of compound”, the half-inhibitory concentration (IC50) was 2.02 µM [middle of 4 runs].

For `Cn1nccc1Nc1nccc(-c2cc3c(s2)C(C)(C)N(CCN2CCOCC2)C3=O)n1`, the viability, T/C (compound 0.0316 µM) is 101% [middle of 5 runs]; the viability, T/C (compound 0.1 µM) was 90.8% [middle of 5 runs]; the viability, T/C (compound 1 µM) is 16% [middle of 5 runs]; the viability, T/C (compound 3.16 µM) is 6.29% [middle of 5 runs]; the viability, T/C (compound 10 µM) was 6.23% [middle of 5 runs]. The IC50 (curve of compound) is 383 nM [middle of 5 runs].

In the case of `Cn1ncnc1[C@H]1c2n[nH]c(=O)c3cc(F)cc(c23)N[C@@H]1c1ccc(F)cc1`, the viability, T/C runs as follows: (compound 0.000316 µM) 99% [middle of 5 runs]; (compound 0.001 µM) 98% [middle of 5 runs]; (compound 0.00316 µM) 101% [middle of 5 runs]; (compound 0.01 µM) 98.1% [middle of 5 runs]; (compound 0.0316 µM) 91% [middle of 5 runs]; (compound 0.1 µM) 80.8% [middle of 5 runs]. For the same compound, the IC50 (curve of compound) was more than 0.1 µM.

For `O=C(c1cc(Cc2n[nH]c(=O)c3ccccc23)ccc1F)N1CCN(C(=O)C2CC2)CC1`, the viability, T/C (compound 0.0316 µM) is 99.2% [middle of 5 runs]; the viability, T/C (compound 0.1 µM) was 101% [middle of 5 runs]; the viability, T/C (compound 0.316 µM) was 99.5% [middle of 5 runs]; the viability, T/C (compound 10 µM) is 40.3% [middle of 5 runs].

The values are drawn from PubChem BioAssay AID1963875 (Molecular Pharmacology Branch, DTP, NCI, 2024).
